From US10159675B2, “Cycling therapy using 3-(5-amino-2-methyl-4-oxo-4H-quinazolin-3-yl)-piperidine-2,6-dione” (Celgene Corporation, priority 2015, dated 2018)

Experiments:
Memory T cells = assay: Clinical study: lymphocyte phenotyping by flow cytometry; type: in vivo, human; conditions: cycle 1, day 22, peripheral blood, 5/7 d schedule
Procedure: (§1) Sample Analysis • Aiolos was measured by flow cytometry on samples of whole blood drawn at 0 hours (pre-dose) and at 1.5 and 5 hours post-dose on cycle 1, day 1 • Archival or screening formalin-fixed paraffin-embedded (FFPE) tissues were stained for MYC and BCL2 expression6 on a Bond-Max automated slide stainer (Leica Microsystems, Buffalo Grove, Ill.) • Pathology review was performed on a hematoxylin and eosin stained slides to identify the area of DLBCL • RNA extraction and NanoString nCounter Analysis System lymphoma subtyping test (Seattle, Wash.) were performed as reported previously7 on core needle and excisional biopsy samples • For lymphocyte phenotyping, whole blood was drawn pre-dose (baseline) and 1.5 hours post-dose on cycle 1 day 15, cycle 1 day 22, cycle 2 day 15, and cycle 2 day 22 • Memory T cells ([…]) were measured by flow cytometry.

[1] = tested on: patients with relapsed or refractory DLBCL; assay: Clinical study: dose-limiting toxicities, adverse events, dose modifications
Text: Adverse events (AEs) were graded by NCI CTCAE v4.0, and responses were investigator assessed using International Workshop criteria for NHL.

[2] = tested on: patients with relapsed or refractory DLBCL; assay: Clinical study: response (International Workshop criteria for NHL), by schedule and biomarker; type: in vivo, human
Procedure: as §1

[3] = tested on: Human CD34+ bone marrow cells; assay: In vitro myeloid differentiation assay; type: cell-based; parameters: dose or concentration left out as unconfirmed; conditions: after 14 days
Procedure: Human CD34+ bone marrow cells were seeded in stem cell factor, Fms-like tyrosine kinase 3 ligand (F1t3L) and granulocyte colony-stimulating factor (G-CSF), followed by 6 days with media plus G-CSF. Compound 1 […] was added continuously or on a 5-of-7-day (5/7 d) schedule. After 14 days, myeloid maturation stages were measured by CD34, CD33, and CD11b flow cytometry.

[4] = AEs occurring in >20% of patients, 3 mg 28/28 d (n = 25)
[5] = AEs occurring in >20% of patients, 4 mg 5/7 d (n = 21)
[6] = Grade 3/4 AEs occurring in >1 patient, 3 mg 28/28 d (n = 25)
[7] = Grade 3/4 AEs occurring in >1 patient, 4 mg 5/7 d (n = 21)
[8] = 4 mg 5/7 d DLBCL-2 cohort (n=17)
[9] = 5 mg 5/7 d DLBCL-2 cohort (n=3)

`Cc1nc2cccc(N)c2c(=O)n1C1CCC(=O)NC1=O` (stereo not drawn) [Compound 1, 3-(5-amino-2-methyl-4-oxo-4H-quinazolin-3-yl)-piperidine-2,6-dione] was tested, and the “median increase from baseline in cytotoxic memory T cells” value (Memory T cells) was 266%, the “median increase from baseline in helper memory T cells” value (Memory T cells) was 75% and the “Relative dose intensity (median)” value ([1]; 3 mg 28/28 d (daily continuously, n = 25)) was 78.6%. For the same molecule, the “DLTs (kind): febrile neutropenia” value ([1]; 3 mg qd) was “Grade 3 febrile”, the “DLTs (kind): neutropenia” value ([1]; 3 mg qd) was “Grade 4” and the “DLTs (kind): sepsis” value ([1]; 3 mg qd) was “Grade 4 sepsis”. The “AE asthenia, patients” value ([1]; 4 mg 5/7 d) was 29%, the “AE constipation, patients” value ([1]; 4 mg 5/7 d) was 29% and the “AE neutropenia, patients” value ([1]; 4 mg 5/7 d) was 52%. For the same molecule, the “AE pyrexia, patients” value ([1]; 4 mg 5/7 d) was 57%, the “DLTs (kind): neutropenia” value ([1]; 4 mg 5/7 d) was “Grade 4” and the “serious treatment-related AE neck pain” value ([1]; 4 mg 5/7 d) was 5%. The “serious treatment-related AE pneumonia” value ([1]; 4 mg 5/7 d) was 5%, the “serious treatment-related AE pneumonitis” value ([1]; 4 mg 5/7 d) was 5% and the “Relative dose intensity (median)” value ([1]; 4 mg 5/7 d (n = 21)) was 97.5%. For the same molecule, the DLTs reported ([1]; 4 mg 5/7 d, DLBCL-2 expansion, 19 DLT-evaluable patients) was “No DLTs”, the “dose-limiting toxicities during cycle 1” value ([1]; 4 mg, 21/28 d cohort (n=3)) was “no dose-limiting toxicities” and the “patients requiring subsequent dose reduction due to grade 4 neutropenia” value ([1]; 4 mg, 21/28 d cohort (n=3)) was 3 patients. For the same molecule, the “DLTs (kind): febrile neutropenia” value ([1]; 5 mg 5/7 d) was “Grade 3”, the “DLTs (kind): pneumonitis” value ([1]; 5 mg 5/7 d) was “Grade 3” and the MTD ([1]; 5/7 d schedule) was 4 mg. For the same molecule, the NTD ([1]; 5/7 d schedule) was 5 mg, the severity of neutropenia ([1]; 5/7 d schedule (FIG. 2)) was “mitigated” and the “non-tolerated dose (NTD)” value ([1]; 21/28 d schedule) was 4 mg. The Anemia [1, 4] was 13 (52) n (%), the Appetite [1, 4] was 1 (4) n (%) and the Arrhythmia [1, 4] was 0 n (%). For the same molecule, the Asthenia [1, 4] was 14 (56) n (%), the Constipation [1, 4] was 4 (16) n (%) and the Cough [1, 4] was 10 (40) n (%). The Decreased [1, 4] was 3 (12) n (%), the Diarrhea [1, 4] was 5 (20) n (%) and the Dyspnea [1, 4] was 4 (16) n (%). The Nausea [1, 4] was 4(16) n (%), the Neutropenia [1, 4] was 19 (76) n (%) and the Peripheral edema [1, 4] was 7 (28) n (%). For the same molecule, the Pyrexia [1, 4] was 10 (40) n (%), the Thrombocytopenia [1, 4] was 9 (36) n (%) and the Vomiting [1, 4] was 4 (16) n (%). For the same molecule, the Anemia [1, 5] was 5 (24) n (%), the Appetite [1, 5] was 3 (14) n (%) and the Arrhythmia [1, 5] was 2 (10) n (%). For the same molecule, the Asthenia [1, 5] was 6 (29) n (%), the Constipation [1, 5] was 6 (29) n (%) and the Cough [1, 5] was 2 (10) n (%). For the same molecule, the Decreased [1, 5] was 3 (14) n (%), the Diarrhea [1, 5] was 3 (14) n (%) and the Dyspnea [1, 5] was 5 (24) n (%). The Nausea [1, 5] was 5 (24) n (%), the Neutropenia [1, 5] was 11 (52) n (%) and the Peripheral edema [1, 5] was 4 (19) n (%). For the same molecule, the Pyrexia [1, 5] was 12 (57) n (%), the Thrombocytopenia [1, 5] was 5 (21) n (%) and the Vomiting [1, 5] was 5 (24) n (%). For the same molecule, the “DLTs, n (%)” value ([1]; DLBCL-2, 4 mg 5/7 d, 19 DLT evaluable) was 0 n (%), the “DLTs, n (%)” value ([1]; DLBCL-2, 4 mg 21/28 d, 3 DLT evaluable) was 0 n (%) and the “DLTs, n (%)” value ([1]; DLBCL-2, 5 mg 5/7 d, 5 DLT evaluable) was 2 (40) n (%). For the same molecule, the Anemia [1, 6] was 3 (12) n (%), the Appetite [1, 6] was 0 n (%) and the Arrhythmia [1, 6] was 0 n (%). For the same molecule, the Asthenia [1, 6] was 5 (20) n (%), the Constipation [1, 6] was 0 n (%) and the Cough [1, 6] was 0 n (%). For the same molecule, the Decreased [1, 6] was 0 n (%), the Diarrhea [1, 6] was 0 n (%) and the Dyspnea [1, 6] was 0 n (%). The Nausea [1, 6] was 0 n (%), the Neutropenia [1, 6] was 16 (64) n (%) and the Peripheral edema [1, 6] was 0 n (%). The Pyrexia [1, 6] was 0 n (%), the Thrombocytopenia [1, 6] was 3 (12) n (%) and the Vomiting [1, 6] was 0 n (%). The Anemia [1, 7] was 0 n (%), the Appetite [1, 7] was 0 n (%) and the Arrhythmia [1, 7] was 2 (7) n (%). The Asthenia [1, 7] was 0 n (%), the Constipation [1, 7] was 0 n (%) and the Cough [1, 7] was 0 n (%). The Decreased [1, 7] was 0 n (%), the Diarrhea [1, 7] was 0 n (%) and the Dyspnea [1, 7] was 0 n (%). For the same molecule, the Nausea [1, 7] was 0 n (%), the Neutropenia [1, 7] was 8 (38) n (%) and the Peripheral edema [1, 7] was 0 n (%). The Pyrexia [1, 7] was 0 n (%), the Thrombocytopenia [1, 7] was 0 n (%) and the Vomiting [1, 7] was 0 n (%). For the same molecule, the “DLTs, n (%)” value ([1]; NHL-1, 3 mg qd, 18 DLT evaluable) was 3 (17) n (%), the “complete responses [CR]” value ([2]; 3 mg 28/28 d cohort (n=22)) was 2 and the “overall response rate (ORR)” value ([2]; 3 mg 28/28 d cohort (n=22)) was 27%. The “partial responses [PR]” value ([2]; 3 mg 28/28 d cohort (n=22)) was 4, the CR [2, 8] was 2 and the ORR [2, 8] was 39%. It also gave a PR [2, 8] of 5, a CR [2, 9] of 1 and an ORR [2, 9] of 100%. For the same molecule, the PR [2, 9] was 2, the “PFS” value ([2]; Cell of Origin ABC) was 99 days and the “PFS” value ([2]; Cell of Origin GCB) was 100 days. The ORR ([2]; Cell of Origin Non-ABC) was 8/27 (30%), the “PFS” value ([2]; Cell of Origin Non-ABC) was 64 days and the ORR ([2]; Cell of Origin Non-GCB) was 6/18 (33%). The “PFS” value ([2]; Cell of Origin Non-GCB) was 74 days, the “PFS” value ([2]; Cell of Origin Unclassified) was 51 days and the “PFS” value ([2]; MYC/BCL2 dual expressor Negative) was 70 days. The “PFS” value ([2]; MYC/BCL2 dual expressor Positive) was 100 days, the “decreased mature neutrophils compared with vehicle” value ([3]; continuous exposure) was 90% and the decreased mature neutrophils ([3]; exposure for 5/7 d) was 50%.
